Patent US7935869B2, “Chimeric gene with several herbicide tolerance genes, plant cell and plant resistant to several herbicides” (Bayer S.A.S., priority 1996, dated 2011)
pIC50: −log10 of the molar value. Where two headings read alike, the source gives them in different places.

Legend:
[1] = test system: wild-type tobacco without tolerance gene; experiment: Postemergence tolerance of tobacco, percentage destruction; type: in vivo; conditions: 17 days after treatment
Method: (§1) In this trial, each test is performed on a sample of 10 plants, 10 plants being kept untreated.
(§2) All the treatments are performed by spraying at the rate of 500 l of spraying mixture per hectare.
(§3) For the postemergence treatment, sowing is performed and then the plants are transplanted in 9 cm×9 cm pots.
(§4) The postemergence treatments are carried out at a well developed stage (3-4 leaves). Batches of plants, respectively wild-type and genetically transformed, obtained above are divided into several parts, with: […]

[2] = test system: PBD6 tobacco transformed with pRP 2012; experiment: Tolerance of tobacco transformed with chimeric gene pRP 2012 (HPPD + double mutant EPSPS); type: in vivo; conditions: under the conditions described in Example 7
Method: The chimeric gene pRP 2012 described below is transferred into the PBD6 industrial tobacco according to the transformation and regeneration procedures already described in European Application EP No. 0 508 909.
The regeneration of the PBD6 tobacco (source SEITA France) from foliar explants is carried out on a Murashige and Skoog (MS) basal medium comprising 30 g/l of sucrose and 350 mg/l of cefotaxime and 1 mg/l of isoxaflutole. The foliar explants are removed from is greenhouse plants or in vitro and transformed according to the foliar disc technique (Science 1985, Vol. 227, p. 1229-1231) in three successive stages: the first comprises the induction of shoots on an MS medium supplemented with 30 g/l of sucrose containing 0.05 mg/l of naphthylacetic acid (ANA) and 2 mg/l of benzylaminopurine (BAP) for 15 days and 1 mg/l of isoxaflutole. The green shoots formed during this stage are then developed by culturing on an MS medium supplemented with 30 g/l of sucrose and 1 mg/l of isoxaflutole but containing no hormone, for 10 days. The shoots that have developed are then removed and they are cultured on MS rooting medium with half the content of salts, vitamins and sugars and 1 mg/l of isoxaflutole and containing no hormone. […]
All the plants obtained according to this protocol are analysed by PCR with primers specific for P. fluorescens HPPD. […]

[3] = target: T1, maize EPSPS mutant Ile 102 (Zea mays, UniProt A0A1D6NVZ6, T164I); experiment: EPSP synthase enzymatic activity, resistance to glyphosate in vitro; type: biochemical
T1 sequence (A0A1D6NVZ6 63-506 T164I): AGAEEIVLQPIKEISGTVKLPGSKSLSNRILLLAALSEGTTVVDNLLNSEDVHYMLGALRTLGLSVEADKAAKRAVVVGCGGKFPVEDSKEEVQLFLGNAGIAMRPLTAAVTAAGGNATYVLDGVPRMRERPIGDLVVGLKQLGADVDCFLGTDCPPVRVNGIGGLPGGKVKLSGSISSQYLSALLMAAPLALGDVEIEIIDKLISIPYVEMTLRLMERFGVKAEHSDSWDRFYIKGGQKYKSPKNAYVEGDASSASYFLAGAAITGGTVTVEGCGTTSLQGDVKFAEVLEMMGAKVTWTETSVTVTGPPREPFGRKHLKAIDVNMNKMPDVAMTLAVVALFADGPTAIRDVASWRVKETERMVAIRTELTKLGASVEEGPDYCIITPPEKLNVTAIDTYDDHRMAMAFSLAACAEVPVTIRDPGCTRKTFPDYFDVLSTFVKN
Method: (§5) The various EPSP synthase genes are introduced in the form of an NcoI-HindIII cassette into the plasmid is vector pTrc99a (Pharmacia, ref: 27-5007-01) cut with NcoI and HindIII. The recombinant E. coli DH10B overexpressing the various EPSP syntheses are sonicated in 40 ml of buffer per 10 g of culotted cells and washed with this same buffer (200 mM Tris-HCl pH 7.8, 50 mM mercaptoethanol, 5 mM EDTA and 1 mM PMSF), to which 1 g of polyvinylpyrrolidone is added. The suspension is stirred for 15 minutes at 4° C. and then centrifuged for 20 minutes at 27,000 g and at 4° C.
(§6) The supernatant is supplemented with ammonium sulphate so as to bring the solution to 40% saturation with ammonium sulphate. The mixture is centrifuged for 20 minutes at 27,000 g and at 4° C. The new supernatant is supplemented with ammonium sulphate so as to bring the solution to 70% saturation with ammonium sulphate. The mixture is centrifuged for 30 minutes at 27,000 g and at 4° C. The EPSP synthase present in this protein pellet is taken up in 1 ml of buffer (20 mM Tris-HCl pH 7.8 and 50 mM mercaptoethanol). This solution is dialysed overnight against two litres of this same buffer at 4° C.
(§7) The activity of each enzyme as well as its resistance to glyphosate is measured in vitro over 10 minutes at 37° C. in the following reaction mixture: 100 mM maleic acid pH 5.6, 1 mM phosphoenol pyruvate, 3 mM shikimate-3-phosphate (prepared according to Knowles P. P. and Sprinson D. B., 1970, Methods in Enzymol., 17A, 351-352 from Aerobacter aerogenes strain ATCC 25597) and 10 mM potassium fluoride. The enzymatic extract is added at the last moment after the addition of glyphosate whose final concentration varies from 0 to 20 mM.
(§8) The activity is measured by assaying the phosphate liberated according to the technique of Tausky H. A. and Shorr B., 1953, J. Biol. Chem., 202, 675-685.

[4] = test system: maize EPSPS mutant Ile 102/Ser 106; experiment: as above; type: biochemical
Method: as §5, §6, §7, §8

[5] = test system: maize EPSPS mutant Ser106; experiment: as above; type: biochemical; conditions: 0.12 mM glyphosate
Method: as §5, §6, §7, §8

[6] = test system: wild-type (WT) maize EPSPS; experiment: as above; type: biochemical; conditions: 0.12 mM glyphosate; 10 minutes at 37° C., pH 5.6
Method: as §5, §6, §7, §8

[7] = test system: maize EPSPS mutant Ala 101/Ile 102; experiment: as above; type: biochemical
Method: as §5, §6, §7, §8

maize EPSPS mutant Ala = experiment: as above; type: biochemical
Method: as §5, §6, §7, §8

[8] = test system: PBD6 tobacco plants HPPD + EPSPS; experiment: Postemergence tolerance of tobacco, percentage destruction; type: in vivo; conditions: 17 days after treatment
Method: as §1, §2, §3
The postemergence treatments are carried out at a well developed stage (3-4 leaves). Batches of plants, respectively wild-type and genetically transformed, obtained above are divided into several parts, with:
Under these conditions, the following phytotoxicities are observed 17 days after the treatment, expressed as percentage destruction indicated in the following table, as well as the number of plants per batch and the doses of herbicide(s) expressed in gram of active substance per hectare: […]

[9] = test system: PBD6 tobacco plants HPPD + OXY; experiment: as above; type: in vivo; conditions: 17 days after treatment
Method: as §1, §2, §3, §4

[10] = test system: control tobacco, not transformed (PBD6); experiment: Greenhouse treatment of non-transformed control tobacco with isoxaflutole; type: in vivo
Method: Upon leaving in vitro, the transformed tobacco plantlets were acclimatized in a greenhouse (60% relative humidity, temperature: 20° C. at night and 23° C. during the day) for five weeks and then treated with 4-[4-CF3-2-(methylsulphonyl)benzoyl]-5-cyclopropylisoxazole.
The control tobacco, not transformed and treated with 4-[4-CF3-2-(methylsulphonyl)benzoyl]-5-cyclopropylisooxazole at doses ranging from 50 to 400 g/ha, develop chlorosis in about 72 hours, which intensifies and develops into very pronounced necrosis within one week (covering about 80% of the terminal leaves).

[11] = test system: maize genotype 261 2D2 (progeny of HPPD-transformed plants); experiment: Selection of maize seeds on sand after isoxaflutole treatment; type: in vivo; conditions: 10 seeds sown
Method: (§9) The transformed plants obtained above produced pollen, assumed in part to be transgenic, which fertilized ovules from a nontransgenic wild-type maize. The seeds obtained are selected on sand after treating with isoxaflutole.
(§10) The selection protocol is the following: 800 ml of Fontainebleau sand are placed in a tub with sides 15×20 cm. These tubs are then sprayed with water and kept hydrated by supplying a nutritive solution consisting of 5 ml of Quinoligo (Quinoline) per litre of water. […] The tubs are then placed in culture in a greenhouse.

[12] = test system: maize genotype 261 2B 459 (progeny of HPPD-transformed plants); experiment: as above; type: in vivo; conditions: 10 seeds sown
Method: as §9, §10

[13] = test system: maize genotype 261 2A2 (progeny of HPPD-transformed plants); experiment: as above; type: in vivo; conditions: 10 seeds sown
Method: as §9, §10

nontransgenic maize = experiment: as above; type: in vivo; conditions: 100 g/ha, 20 seeds sown
Method: as §9
The selection protocol is the following: 800 ml of Fontainebleau sand are placed in a tub with sides 15×20 cm. These tubs are then sprayed with water and kept hydrated by supplying a nutritive solution consisting of 5 ml of Quinoligo (Quinoline) per litre of water. Twenty maize seeds are placed on the tubs, which are then treated with isoxaflutole by spraying at the rate of 100 to 200 g of active substance per hectare (300 or 600 μg of active substance per tub). The tubs are then placed in culture in a greenhouse.

[14] = test system: PBD6 tobacco overexpressing the P. fluorescens HPPD; experiment: Greenhouse treatment of transformed tobacco overexpressing HPPD with isoxaflutole; type: in vivo
Source text: To determine the efficiency of these two chimeric genes, they were transferred into the industrial tobacco PBD6 according to the transformation and regeneration techniques already described in European Application EP No. 0 508 909.
The vector is introduced into the non oncogenic Agrobacterium EHA 101 strain (Hood et al., 1987) carrying the cosmaid pTVK 291 (Komari et al., 1986). The transformation technique is based on the procedure by Horsh R. et al., (1985) Science, 227, 1229-1231.
The regeneration of the PBD6 tobacco (source SEITA France) from foliar explants is carried out on a Murashige and Skoog (MS) basal medium comprising 30 g/l of sucrose and 100 μg/ml of kanamycin. The foliar explants are removed from greenhouse plants or in vitro and transformed according to the foliar disc technique (Science 1985, Vol. 227, p. 1229-1231) in three successive stages: the first comprises the induction of shoots on an MS medium supplemented with 30 g/l of sucrose containing 0.05 mg/l of naphthylacetic acid (ANA) and 2 mg/l of benzylaminopurine (BAP) for 15 days. The shoots formed during this stage are then developed by culturing on an MS medium supplemented with 30 g/l of sucrose but containing no hormone, for 10 days. […]

## O=C(O)CNCP(=O)(O)O [glyphosate]
[1]; 800 g/ha postemergence
  phytotoxicity, percentage destruction: 100%
[1]; 1200 g/ha postemergence
  phytotoxicity, percentage destruction: 100%
[2]
  tolerance: tolerant
[3]; 0.12 mM glyphosate
  inhibition of enzyme activity: not or not strongly inhibited
[3]; 10 minutes at 37° C., pH 5.6, read-out: glyphosate concentration to inhibit the enzyme by 50%
  pIC50: 2.92
[4]; 0.12 mM glyphosate
  inhibition of enzyme activity: not or not strongly inhibited
[4]; 1.2 mM glyphosate
  inhibition of enzyme activity: not being inhibited
[4]; 20 mM glyphosate
  reduction of enzyme activity: not reduced
[5]
  inhibition of enzyme activity: 50%
[6]
  inhibition of enzyme activity: 85%
[7]; 0.12 mM glyphosate
  inhibition of enzyme activity: not or not strongly inhibited
[7]; 1.2 mM glyphosate
  inhibition of enzyme activity: not being inhibited
[7]; up to concentrations of 10 m glyphosate
  inhibition of enzyme activity: not inhibited
Maize EPSPS mutant Ala
  inhibition of enzyme activity: not inhibited
Maize EPSPS mutant Ala; 1.2 mM glyphosate
  inhibition of enzyme activity: not being inhibited
[8]; 800 g/ha postemergence
  phytotoxicity, percentage destruction: 0%
[8]; 1200 g/ha postemergence
  phytotoxicity, percentage destruction: 0%

## CS(=O)(=O)c1cc(C(F)(F)F)ccc1C(=O)c1cnoc1C1CC1 [isoxaflutole, 4-[4-CF3-2-(methylsulphonyl)benzoyl]-5-cyclopropylisoxazole]
[9]; 200 g/ha postemergence
  phytotoxicity, percentage destruction: 4%
[9]; 400 g/ha postemergence
  phytotoxicity, percentage destruction: 5%
[1]; 200 g/ha postemergence
  phytotoxicity, percentage destruction: 75%
[1]; 400 g/ha postemergence
  phytotoxicity, percentage destruction: 85%
[10]; doses ranging from 50 to 400 g/ha
  time to development of chlorosis: about 72 hours
[10]; within one week, doses 50 to 400 g/ha
  very pronounced necrosis, share of the terminal leaves covered: about 80%
[11]; 100 g/ha
  Number of dead plants: 6
  Number of germinated plants: 9
  Number of surviving plants: 3
[11]; 200 g/ha
  Number of dead plants: 7
  Number of germinated plants: 10
  Number of surviving plants: 3
[12]; 100 g/ha
  Number of dead plants: 5
  Number of germinated plants: 10
  Number of surviving plants: 5
[12]; 200 g/ha
  Number of dead plants: 4
  Number of germinated plants: 9
  Number of surviving plants: 5
[13]; 100 g/ha
  Number of dead plants: 3
  Number of germinated plants: 5
  Number of surviving plants: 2
[13]; 200 g/ha
  Number of dead plants: 7
  Number of germinated plants: 7
  Number of surviving plants: 0
[2]
  tolerance: tolerant
Nontransgenic maize
  Number of dead plants: 20
  Number of germinated plants: 20
  Number of surviving plants: 0
[14]; dose of 400 g/ha
  protection against treatment: very well protected
[14]; enzyme overexpressed in the chloroplast (vector pRP V)
  protection against treatment, symptoms: perfectly protected and shows no symptom
[8]; 200 g/ha postemergence
  phytotoxicity, percentage destruction: 2%
[8]; 400 g/ha postemergence
  phytotoxicity, percentage destruction: 3%
